Measurements from US20260070945A1, “MACROCYCLIC IMMUNOMODULATORS” (Bristol-Myers Squibb Company, priority 2022, published 2026).
Like-named read-outs stand apart in the source and are kept apart here. Where a SMILES comes first, the peptide text is derived from it. Bridges are numbered along the chain shown (N, C = ends). [ ]: non-standard residue; d: D form. The star is where a group is joined. ξ: configuration not given here. Phe(4-CF3) = N[C@@H](Cc1ccc(C(F)(F)F)cc1)C(=O)O; Phe(4-COOH) = N[C@@H](Cc1ccc(C(=O)O)cc1)C(=O)O; Bip = N[C@@H](Cc1ccc(-c2ccccc2)cc1)C(=O)O; Phe(3-F) = N[C@@H](Cc1cccc(F)c1)C(=O)O; Phe(3-Me) = Cc1cccc(C[C@H](N)C(=O)O)c1; Val(3-OH) = CC(C)(O)[C@H](N)C(=O)O; Cha = N[C@@H](CC1CCCCC1)C(=O)O; Ile(3ξ) = CCC(C)[C@H](N)C(=O)O; Carboxymethyl = O=C(O)C*; NMeA = CN[C@@H](C)C(=O)O; Orn = NCCC[C@H](N)C(=O)O; Aun = NCCCCCCCCCCC(=O)O; Dab = NCC[C@H](N)C(=O)O; AEEA = NCCOCCOCC(=O)O

Molecular target: T1, PD-1/PD-L1 interaction (PE-labeled human PD-L1-Ig binding to Jurkat cell line over-expressing human PD-1) (Homo sapiens, UniProt Q15116)
T1 construct: expressed in transfected cells; host or cells: Jurkat
Experiment: Jurkat-PD-1 Cell Binding High-Content Screening Assay (CBA)
Method in brief: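 In this imaging assay, cells in 10% FCS medium see compound for 2 h at 37 °C and then labeled ligand at 20 nM final for 1 h. Paraformaldehyde fixation, Hoechst 33342 staining and dPBS washes precede image capture.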

[1] = PE-labeled PD-L1-Ig 20 nM final, Jurkat-hPD-1 cells; read-out: Jurkat HPD1 PDL1 IC50
[2] = Jurkat-hPD-1 cells, PE-labeled PD-L1-Ig 20 nM final; read-out: Jurkat HPD1 PDL1 IC50

T1 sequence (Q15116 25-288): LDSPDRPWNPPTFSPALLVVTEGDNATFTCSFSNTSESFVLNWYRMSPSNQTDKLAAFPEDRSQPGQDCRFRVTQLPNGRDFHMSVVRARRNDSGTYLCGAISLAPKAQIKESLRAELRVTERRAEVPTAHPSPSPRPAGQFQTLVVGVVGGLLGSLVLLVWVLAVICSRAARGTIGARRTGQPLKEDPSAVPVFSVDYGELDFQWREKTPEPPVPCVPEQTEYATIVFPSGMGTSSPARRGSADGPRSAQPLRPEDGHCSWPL

SMILES	IC50 [1] [µM]	IC50 [2] [µM]
Cc1cccc(C[C@@H]2NC(=O)[C@H](CC(=O)O)NC(=O)[C@H](Cc3ccc(OCC(=O)O)cc3)NC(=O)[C@H](Cc3ccc(OCC(=O)O)cc3)NC(=O)CSC[C@@H](C(=O)N[C@@H](CCN)C(=O)NCCCCCCCCCCC(=O)O)NC(=O)[C@H]([C@@H](C)O)NC(=O)[C@H](C(C)C)NC(=O)[C@H](CC3CCCCC3)NC(=O)[C@H](CCN)NC(=O)[C@@H](CC(C)C)NC(=O)[C@H](C)N(C)C(=O)[C@H](Cc3ccc(OCC(=O)O)cc3)NC(=O)[C@H](Cc3ccc(-c4ccccc4)cc3)NC(=O)[C@H](C(C)C)NC2=O)c1 [Example 1264] ({CH2CO}-Y(Carboxymethyl)Y(Carboxymethyl)D[Phe(3-Me)]V[Bip]Y(Carboxymethyl)[NMeA][dL][Dab][Cha]VTC[Dab][Aun]-OH; thioether N-14)	–	0.0318
CCC(C)[C@@H]1NC(=O)[C@H](Cc2ccc(-c3ccccc3)cc2)NC(=O)[C@H](Cc2ccc(C(F)(F)F)cc2)NC(=O)[C@H](Cc2cccc(F)c2)NC(=O)[C@H](CC(=O)O)NC(=O)[C@H](Cc2ccc(C(=O)O)cc2)NC(=O)[C@H](Cc2cnc[nH]2)NC(=O)CSC[C@@H](C(=O)N[C@@H](CCN)C(=O)NCCCCCCCCCCC(=O)O)NC(=O)[C@H](CO)NC(=O)[C@H](C(C)(C)O)NC(=O)[C@H](CC2CCCCC2)NC(=O)[C@H](CCN)NC(=O)[C@@H](CC(C)C)NC(=O)[C@H](C)N(C)C1=O (stereo partly drawn) [Example 2586] ({CH2CO}-H[Phe(4-COOH)]D[Phe(3-F)][Phe(4-CF3)][Bip][Ile(3ξ)][NMeA][dL][Dab][Cha][Val(3-OH)]SC[Dab][Aun]-OH; thioether N-14)	0.0141	–

Next, values leading:

IC50 [1] [µM]	IC50 [2] [µM]	SMILES
0.0117	–	CC(=O)NCCCC[C@@H]1NC(=O)[C@H](C(C)(C)O)NC(=O)[C@H](CC2CCCCC2)NC(=O)[C@H](CCN)NC(=O)[C@@H](CC(C)C)NC(=O)[C@H](C)N(C)C(=O)[C@H](CCC(N)=O)NC(=O)[C@H](Cc2ccc(-c3ccccc3)cc2)NC(=O)[C@H](Cc2ccc(C(=O)O)cc2)NC(=O)[C@H](Cc2cccc(C)c2)NC(=O)[C@H](CC(=O)O)NC(=O)[C@H](Cc2ccc(C(F)(F)F)cc2)NC(=O)[C@H](Cc2ccc(OCC(=O)O)cc2)NC(=O)CSC[C@@H](C(=O)N[C@@H](CCN)C(=O)NCCOCCOCC(=O)NCCCCCCCCCCC(=O)O)NC1=O [Example 2595] ({CH2CO}-Y(Carboxymethyl)[Phe(4-CF3)]D[Phe(3-Me)][Phe(4-COOH)][Bip]Q[NMeA][dL][Dab][Cha][Val(3-OH)]K(Ac)C[Dab][AEEA][Aun]-OH; thioether N-14)
–	0.0458	Cc1cccc(C[C@@H]2NC(=O)[C@H](CC(=O)O)NC(=O)[C@H](Cc3ccc(OCC(=O)O)cc3)NC(=O)[C@H]([C@@H](C)O)NC(=O)CSC[C@@H](C(=O)N[C@@H](CCN)C(=O)NCCOCCOCC(=O)NCCCCCCCCCCC(=O)O)NC(=O)[C@H](CCCN)NC(=O)[C@H](C(C)C)NC(=O)[C@H](CC3CCCCC3)NC(=O)[C@H](CCC(=O)O)NC(=O)[C@@H](CC(C)C)NC(=O)[C@H](C)N(C)C(=O)[C@H](Cc3ccc(OCC(=O)O)cc3)NC(=O)[C@H](Cc3ccc(-c4ccccc4)cc3)NC(=O)[C@H](Cc3ccc(OCC(=O)O)cc3)NC2=O)c1 [Example 1376] ({CH2CO}-TY(Carboxymethyl)D[Phe(3-Me)]Y(Carboxymethyl)[Bip]Y(Carboxymethyl)[NMeA][dL]E[Cha]V[Orn]C[Dab][AEEA][Aun]-OH; thioether N-14)
–	0.0382	CC(=O)NCC[C@@H]1NC(=O)[C@H](C(C)(C)O)NC(=O)[C@H](CC2CCCCC2)NC(=O)[C@H](CCN)NC(=O)[C@@H](CC(C)C)NC(=O)[C@H](C)N(C)C(=O)[C@H](C(C)C)NC(=O)[C@H](Cc2ccc(-c3ccccc3)cc2)NC(=O)[C@H](CC(C)C)NC(=O)[C@H](Cc2c[nH]c3ccccc23)NC(=O)[C@H](CC(=O)O)NC(=O)[C@H](Cc2ccc(OCC(=O)O)cc2)NC(=O)[C@H](Cc2ccc(OCC(=O)O)cc2)NC(=O)CSC[C@@H](C(=O)NCCOCCOCC(=O)NCCCCCCCCCCC(=O)O)NC1=O [Example 2447] ({CH2CO}-Y(Carboxymethyl)Y(Carboxymethyl)DWL[Bip]V[NMeA][dL][Dab][Cha][Val(3-OH)][Dab](Ac)C[AEEA][Aun]-OH; thioether N-14)
